Data taken from US12398154B2, “Azaquinazoline pan-KRas inhibitors” (Mirati Therapeutics, Inc., priority 2020, dated 2025).
pIC50: −log10 of the molar value.

Key:
Test in all cases: biochemical
KRas WT = KRas WT (Homo sapiens, UniProt P01116);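 further: binding to KRas read as TR-FRET displacement after a one-hour room-temperature incubation, IC50 derived from percent-of-control values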
Protocol: (§1) The ability of a compound to bind to KRas was measured using a TR-FRET displacement assay. […] After a 60-minute incubation at room temperature, the reaction was measured using a BMG LABTECH CLARIO star Plus via TR-FRET. […] The POC values were fit to a 4-parameter IC50 equation and the IC50 value reported.

KRas G12C = KRas G12C (Homo sapiens, UniProt P01116, G12C);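 further: binding to KRas assessed by TR-FRET displacement after one hour incubation at room temperature, potency fitted from percent-of-control values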
KRas G12C, sequence (P01116 1-169 isoform P01116-2 G12C): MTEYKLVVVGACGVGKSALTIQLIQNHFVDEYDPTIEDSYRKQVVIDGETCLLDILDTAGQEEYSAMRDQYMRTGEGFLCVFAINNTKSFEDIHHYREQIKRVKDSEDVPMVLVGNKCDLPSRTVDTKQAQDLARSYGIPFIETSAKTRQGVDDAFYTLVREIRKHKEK
Protocol: as §1

KRas G12R = KRas G12R (Homo sapiens, UniProt P01116, G12R);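 further: TR-FRET displacement assay of compound binding to KRas, read after one hour at room temperature, potency from a four-parameter fit of percent-of-control values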
KRas G12R, sequence (P01116 1-169 isoform P01116-2 G12R): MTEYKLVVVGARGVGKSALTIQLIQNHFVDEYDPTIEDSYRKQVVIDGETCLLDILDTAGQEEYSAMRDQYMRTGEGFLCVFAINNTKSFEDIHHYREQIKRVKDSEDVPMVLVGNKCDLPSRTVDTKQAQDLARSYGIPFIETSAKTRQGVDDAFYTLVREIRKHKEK
Protocol: as §1

KRas G12D = KRas G12D (Homo sapiens, UniProt P01116, G12D);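 further: TR-FRET displacement binding assay on KRas, read after a one-hour incubation at room temperature, IC50 fitted from percent-of-control values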
KRas G12D, sequence (P01116 1-169 isoform P01116-2 G12D): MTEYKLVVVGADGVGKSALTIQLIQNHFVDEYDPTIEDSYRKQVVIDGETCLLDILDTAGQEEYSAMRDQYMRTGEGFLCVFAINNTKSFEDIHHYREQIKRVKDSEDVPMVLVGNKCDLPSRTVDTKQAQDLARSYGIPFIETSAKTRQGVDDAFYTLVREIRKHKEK
Protocol: as §1

KRas G12S = KRas G12S (Homo sapiens, UniProt P01116, G12S);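 further: TR-FRET displacement binding to KRas, read after one hour incubation at room temperature, IC50 from four-parameter fit of percent of control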
KRas G12S, sequence (P01116 1-169 isoform P01116-2 G12S): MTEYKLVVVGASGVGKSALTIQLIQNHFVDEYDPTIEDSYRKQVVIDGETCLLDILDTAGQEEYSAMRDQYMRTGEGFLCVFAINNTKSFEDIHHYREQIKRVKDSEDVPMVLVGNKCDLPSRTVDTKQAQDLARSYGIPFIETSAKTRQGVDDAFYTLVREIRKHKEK
Protocol: as §1

KRas G12V = KRas G12V (Homo sapiens, UniProt P01116, G12V);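 further: KRas binding measured by TR-FRET displacement at room temperature, IC50 fitted from percent of control values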
KRas G12V, sequence (P01116 1-169 isoform P01116-2 G12V): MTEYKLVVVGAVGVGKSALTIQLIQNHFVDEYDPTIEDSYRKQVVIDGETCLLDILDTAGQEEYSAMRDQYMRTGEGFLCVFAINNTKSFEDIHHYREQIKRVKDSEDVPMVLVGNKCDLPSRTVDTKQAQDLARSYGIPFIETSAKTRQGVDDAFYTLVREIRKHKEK
Protocol: as §1

KRas G12A = KRas G12A (Homo sapiens, UniProt P01116, G12A);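 further: binding to KRas measured by TR-FRET displacement after one hour at room temperature, IC50 from a four-parameter fit of percent-of-control values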
KRas G12A, sequence (P01116 1-169 isoform P01116-2 G12A): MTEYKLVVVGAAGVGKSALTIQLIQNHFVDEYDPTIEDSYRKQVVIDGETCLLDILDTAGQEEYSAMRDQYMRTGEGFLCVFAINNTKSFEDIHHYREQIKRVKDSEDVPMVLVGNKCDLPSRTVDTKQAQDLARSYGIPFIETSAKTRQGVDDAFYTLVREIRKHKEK
Protocol: as §1

KRas WT, sequence (P01116 1-169 isoform P01116-2): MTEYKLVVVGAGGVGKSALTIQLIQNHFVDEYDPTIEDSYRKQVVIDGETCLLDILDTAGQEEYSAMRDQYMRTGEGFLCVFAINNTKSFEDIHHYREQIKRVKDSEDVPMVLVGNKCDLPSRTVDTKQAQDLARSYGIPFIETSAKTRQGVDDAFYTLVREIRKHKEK

Row | SMILES | pIC50 (KRas WT) | pIC50 (KRas G12C) | pIC50 (KRas G12R) | pIC50 (KRas G12D) | pIC50 (KRas G12S) | pIC50 (KRas G12V) | pIC50 (KRas G12A)
1 | C#Cc1cccc2cccc(-c3ncc4c(N5CCCC(CS(N)(=O)=O)C5)nc(OCC56CCCN5CCC6)nc4c3F)c12 (stereo not drawn) [Example 437, 1-(1-(7-(8-ethynylnaphthalene-1-yl)-8-fluoro-2-((hexahydro-1H-pyrrolizin-7a-yl)methoxy)pyrido[4,3-d]pyrimidin-4-yl)piperidin-3-yl)methanesulfonamide] | 6.15 | 5.85 | 5.56 | 5.84 | 6.04 | 5.57 | 5.87
2 | Cc1cccc2cccc(-c3ncc4c(N5CCCC(CS(N)(=O)=O)C5)nc(OCC56CCCN5CCC6)nc4c3F)c12 (stereo not drawn) [Example 438, 1-(1-(8-fluoro-2-((hexahydro-1H-pyrrolizin-7a-yl)methoxy)-7-(8-methylnaphthalen-1-yl)pyrido[4,3-d]pyrimidin-4-yl)piperidin-3-yl)methanesulfonamide] | 7.02 | 6.89 | 7.00 | 6.62 | 6.97 | 6.62 | 6.96
3 | NS(=O)(=O)CC1CCCN(c2nc(OCC34CCCN3CCC4)nc3c(F)c(-c4cccc5cccc(CO)c45)ncc23)C1 (stereo not drawn) [Example 439, 1-(1-(8-fluoro-2-((hexahydro-1H-pyrrolizin-7a-yl)methoxy)-7-(8-(hydroxymethyl)naphthalen-1-yl)pyrido[4,3-d]pyrimidin-4-yl)piperidin-3-yl)methanesulfonamide] | 5.69 | 5.60 | 5.55 | 5.10 | 5.65 | 5.24 | 5.67
4 | CC1(O)CCCN(c2nc(OCC34CCCN3CCC4)nc3c(F)c(-c4cccc5cccc(C6CC6)c45)ncc23)C1 (stereo not drawn) [Example 440, 1-(7-(8-cyclopropylnaphthalen-1-yl)-8-fluoro-2-((hexahydro-1H-pyrrolizin-7a-yl)methoxy)pyrido[4,3-d]pyrimidin-4yl)-3-methylpiperidin-3-ol] | 6.15 | 6.26 | 5.76 | 6.29 | 6.16 | 6.07 | 6.12
5 | O=S1(=O)CC(CNc2nc(OCC34CCCN3CCC4)nc3c(F)c(-c4cccc5cccc(CO)c45)ncc23)C1 [Example 443, 3-(((8-fluoro-2-((hexahydro-1H-pyrrolizin-7a-yl)methoxy)-7-(8-(hydroxymethyl)naphthalen-1-yl)pyrido[4,3-d]pyrimidin-4-yl)amino)methyl)thietane1,1-dioxide] | 4.73 | 5.09 | 5.20 | 4.28 | 5.20 | 5.38 | 5.07
6 | O=C1NC(=O)C2(CCCN(c3nc(OCC45CCCN4CCC5)nc4c(F)c(-c5cccc6cccc(CO)c56)ncc34)C2)N1 (stereo not drawn) [Example 447, 7-(8-fluoro-2-((hexahydro-1H-pyrrolizin-7a-yl)methoxy)-7-(8-(hydroxymethyl)naphthalen-1-yl)pyrido[4,3-d]pyrimidin-4-yl)-1,3,7-triazaspiro[4.5]decane-2,4-dione] | 6.25 | 6.22 | 6.02 | 5.96 | 6.23 | 6.13 | 6.18
7 | Cc1cccc2cccc(-c3ncc4c(N5CCCC6(C5)NC(=O)NC6=O)nc(OCC56CCCN5CCC6)nc4c3F)c12 (stereo not drawn) [Example 448, 7-(8-fluoro-2-((hexahydro-1H-pyrrolizin-7a-yl)methoxy)-7-(8-methylnaphthalen-1-yl)pyrido[4,3-d]pyrimidin-4-yl)-1,3,7-triazaspiro[4.5]decane-2,4-dione] | 7.28 | 7.28 | 7.21 | 7.06 | 7.31 | 7.27 | 7.23
8 | N#Cc1cccc2cccc(-c3ncc4c(N5CCCC6(C5)NC(=O)NC6=O)nc(OCC56CCCN5CCC6)nc4c3F)c12 (stereo not drawn) [Example 449, 8-(4-(2,4-dioxo-1,3,7-triazaspiro[4.5]decan-7-yl)-8-fluoro-2-((hexahydro-1H-pyrrolizin-7a-yl)methoxy)pyrido[4,3-d]pyrimidin-7-yl)-1-naphthonitrile] | 5.39 | 5.44 | 5.36 | 5.08 | 5.38 | 5.44 | 5.25
9 | Cc1cccc2cccc(-c3ncc4c(N5CCCC6(CC(=O)N6)C5)nc(OCC56CCCN5CCC6)nc4c3F)c12 (stereo not drawn) [Example 450, 6-(8-fluoro-2-((hexahydro-1H-pyrrolizin-7a-yl)methoxy)-7-(8-methylnaphthalen-1-yl)pyrido[4,3-d]pyrimidin-4-yl)-1,6-diazaspiro[3.5]nonan-2-one] | 6.47 | 6.63 | 6.46 | 6.60 | 6.56 | 6.62 | 6.45
10 | N#Cc1cccc2cccc(-c3ncc4c(N5CCCC6(CC(=O)N6)C5)nc(OCC56CCCN5CCC6)nc4c3F)c12 (stereo not drawn) [Example 451, 8-(8-fluoro-2-((hexahydro-1H-pyrrolizin-7a-yl)methoxy)-4-(2-oxo-1,6-diazaspiro[3.5]nonan-6-yl)pyrido[4,3-d]pyrimidin-7-yl)-1-naphthonitrile] | 5.64 | 5.72 | 5.38 | 5.59 | 5.69 | 5.54 | 5.51
11 | O=C1NCC2(CCCN(c3nc(OCC45CCCN4CCC5)nc4c(F)c(-c5cccc6cccc(CO)c56)ncc34)C2)N1 (stereo not drawn) [Example 453, 7-(8-fluoro-2-((hexahydro-1H-pyrrolizin-7a-yl)methoxy)-7-(8-(hydroxymethyl)naphthalen-1-yl)pyrido[4,3-d]pyrimidin-4-yl)-1,3,7-triazaspiro[4.5]decan-2-one] | 6.33 | 6.32 | 5.95 | 6.56 | 6.34 | 6.24 | 6.25
12 | Cc1cccc2cccc(-c3ncc4c(N5CCCC6(CNC(=O)N6)C5)nc(OCC56CCCN5CCC6)nc4c3F)c12 (stereo not drawn) [Example 454, 7-(8-fluoro-2-((hexahydro-1H-pyrrolizin-7a-yl)methoxy)-7-(8-methylnaphthalen-1-yl)pyrido[4,3-d]pyrimidin-4-yl)-1,3,7-triazaspiro[4.5]decan-2-one] | 6.79 | 6.80 | 6.38 | 6.98 | 6.78 | 6.72 | 6.75
13 | Cc1cccc2cccc(-c3ncc4c(N5CCCC(c6nc[nH]n6)C5)nc(OCC56CCCN5CCC6)nc4c3F)c12 (stereo not drawn) [Example 455, 4-(3-(1H-1,2,4-triazol-3-yl)piperidin-1-yl)-8-fluoro-2-((hexahydro-1H-pyrrolizin-7a-yl)methoxy)-7-(8-methylnaphthalen-1-yl)pyrido[4,3-d]pyrimidine] | 4.93 | 5.07 | 5.35 | 5.20 | 5.09 | 5.29 | 5.22
14 | C#Cc1cccc2cccc(-c3ncc4c(N5C[C@@H]6C(=O)NC(=O)[C@@H]6C5)nc(OCC56CCCN5CCC6)nc4c3F)c12 [Example 458, (3aR,6aS)-5-(7-(8-ethynylnaphthalen-1-yl)-8-fluoro-2-((hexahydro-1H-pyrrolizin-7a-yl)methoxy)pyrido[4,3-d]pyrimidin-4-yl)tetrahydropyrrolo[3,4-c]pyrrole-1,3(2H,3aH)-dione] | 7.28 | 7.12 | 6.76 | 7.82 | 7.55 | 7.41 | 7.01
15 | NS(=O)(=O)CC1CCCN(c2nc(OCC34CCCN3CCC4)nc3c(F)c(-c4cccc5cccc(CF)c45)ncc23)C1 (stereo not drawn) [Example 460, 1-(1-(8-fluoro-7-(8-(fluoromethyl)naphthalen-1-yl)-2-((hexahydro-1H-pyrrolizin-7a-yl)methoxy)pyrido[4,3-d]pyrimidin-4-yl)piperidin-3-yl)methanesulfonamide] | 6.16 | 6.04 | 6.26 | 5.63 | 6.12 | 5.83 | 6.12
16 | O=C1NC(=O)C2(CCCN(c3nc(OCC45CCCN4CCC5)nc4c(F)c(-c5cccc6cccc(CF)c56)ncc34)C2)N1 (stereo not drawn) [Example 462, 7-(8-fluoro-7-(8-(fluoromethyl)naphthalen-1-yl)-2-((hexahydro-1H-pyrrolizin-7a-yl)methoxy)pyrido[4,3-d]pyrimidin-4-yl)-1,3,7-triazaspiro[4.5]decane-2,4-dione] | 6.31 | 6.37 | 6.38 | 6.06 | 6.51 | 6.46 | 6.49
17 | NS(=O)(=O)CC1CCCN(c2nc(OCC34CCCN3CCC4)nc3c(F)c(-c4cccc5cccc(C(F)F)c45)ncc23)C1 (stereo not drawn) [Example 463, 1-(1-(7-(8-(difluoromethyl)naphthalen-1-yl)-8-fluoro-2-((hexahydro-1H-pyrrolizin-7a-yl)methoxy)pyrido[4,3-d]pyrimidin-4-yl)piperidin-3-yl)methanesulfonamide] | 5.62 | 5.67 | 5.87 | 5.19 | 5.85 | 5.51 | 5.81
18 | O=C1NC(=O)C2(CCCN(c3nc(OCC45CCCN4CCC5)nc4c(F)c(-c5cccc6cccc(C(F)F)c56)ncc34)C2)N1 (stereo not drawn) [Example 464, 7-(7-(8-(difluoromethyl)naphthalen-1-yl)-8-fluoro-2-((hexahydro-1H-pyrrolizin-7a-yl)methoxy)pyrido[4,3-d]pyrimidin-4-yl)-1,3,7-triazaspiro[4.5]decane-2,4-dione] | 6.18 | 6.34 | 6.29 | 6.01 | 6.45 | 6.33 | 6.29
